Assay results reported in PubChem BioAssay (NCI).
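At the GI50, growth is halved. TGI marks complete inhibition of growth.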

Tests used:
Experiment in all cases: growth of human tumour cells (NCI), 384-well format
MALME-3M melanoma = test system: MALME-3M melanoma
SW-620 colon = test system: SW-620 colon
A498 renal = test system: A498 renal
IGROV1 ovarian = test system: IGROV1 ovarian
OVCAR-8 ovarian = test system: OVCAR-8 ovarian
RPMI-8226 leukemia = test system: RPMI-8226 leukemia
DU-145 prostate = test system: DU-145 prostate
CCRF-CEM leukemia = test system: CCRF-CEM leukemia
COLO 205 colon = test system: COLO 205 colon
OVCAR-3 ovarian = test system: OVCAR-3 ovarian
NCI-H23 lung = test system: NCI-H23 lung
MDA-MB-231 breast = test system: MDA-MB-231 breast
SF-268 CNS = test system: SF-268 CNS
SF-539 CNS = test system: SF-539 CNS
HCC-2998 colon = test system: HCC-2998 colon
SNB-75 CNS = test system: SNB-75 CNS
PC-3 prostate = test system: PC-3 prostate
EKVX NSCLC = test system: EKVX NSCLC
MOLT-4 leukemia = test system: MOLT-4 leukemia
HOP-92 NSCLC = test system: HOP-92 NSCLC
NCI-H226 lung = test system: NCI-H226 lung
KM12 colon = test system: KM12 colon
M14 melanoma = test system: M14 melanoma
SN12C renal = test system: SN12C renal
SNB-19 CNS = test system: SNB-19 CNS
NCI/ADR-RES ovarian = test system: NCI/ADR-RES ovarian
OVCAR-5 ovarian = test system: OVCAR-5 ovarian
RXF 393 renal = test system: RXF 393 renal
OVCAR-4 ovarian = test system: OVCAR-4 ovarian
MDA-MB-468 breast = test system: MDA-MB-468 breast
HCT-15 colon = test system: HCT-15 colon
SR leukemia = test system: SR leukemia
BT-549 breast = test system: BT-549 breast
SK-MEL-28 melanoma = test system: SK-MEL-28 melanoma
UO-31 renal = test system: UO-31 renal
HS 578T breast = test system: HS 578T breast
SK-MEL-5 melanoma = test system: SK-MEL-5 melanoma
NCI-H522 lung = test system: NCI-H522 lung
HOP-62 NSCLC = test system: HOP-62 NSCLC
UACC-257 melanoma = test system: UACC-257 melanoma
NCI-H460 NSCLC = test system: NCI-H460 NSCLC
SF-295 CNS = test system: SF-295 CNS
LOX IMVI melanoma = test system: LOX IMVI melanoma
HT29 colon = test system: HT29 colon
K-562 leukemia = test system: K-562 leukemia
HL-60(TB) leukemia = test system: HL-60(TB) leukemia
NCI-H322M lung = test system: NCI-H322M lung
U251 glioblastoma = test system: U251 glioblastoma
MDA-MB-435 melanoma = test system: MDA-MB-435 melanoma

CCC(CC)c1cc(N[C@H]2CC[C@H](N)C2)n2nccc2n1
GI50 (MALME-3M melanoma): 761 nM | TGI (MALME-3M melanoma): 1950 nM | GI50 (SW-620 colon): 360 nM | TGI (SW-620 colon): 8 µM | GI50 (A498 renal): 218 nM | TGI (A498 renal): 457 nM | GI50 (IGROV1 ovarian): 414 nM | TGI (IGROV1 ovarian): > 100 µM | GI50 (OVCAR-8 ovarian): 329 nM | TGI (OVCAR-8 ovarian): 1760 nM | GI50 (RPMI-8226 leukemia): 181 nM | TGI (RPMI-8226 leukemia): 337 nM | GI50 (DU-145 prostate): 313 nM | TGI (DU-145 prostate): 933 nM | GI50 (CCRF-CEM leukemia): 210 nM | TGI (CCRF-CEM leukemia): 423 nM | GI50 (COLO 205 colon): 267 nM | TGI (COLO 205 colon): 646 nM | GI50 (OVCAR-3 ovarian): 200 nM | TGI (OVCAR-3 ovarian): 411 nM | GI50 (NCI-H23 lung): 220 nM | TGI (NCI-H23 lung): 505 nM | GI50 (MDA-MB-231 breast): 269 nM | TGI (MDA-MB-231 breast): 778 nM | GI50 (SF-268 CNS): 274 nM | TGI (SF-268 CNS): 724 nM | GI50 (SF-539 CNS): 210 nM | TGI (SF-539 CNS): 452 nM | GI50 (HCC-2998 colon): 235 nM | TGI (HCC-2998 colon): 572 nM | GI50 (SNB-75 CNS): 380 nM | TGI (SNB-75 CNS): 1190 nM | GI50 (PC-3 prostate): 262 nM | TGI (PC-3 prostate): 723 nM | GI50 (EKVX NSCLC): 516 nM | TGI (EKVX NSCLC): 2650 nM | GI50 (MOLT-4 leukemia): 247 nM | TGI (MOLT-4 leukemia): 528 nM | GI50 (HOP-92 NSCLC): 340 nM | TGI (HOP-92 NSCLC): 24.3 µM | GI50 (NCI-H226 lung): 226 nM | TGI (NCI-H226 lung): 513 nM | GI50 (KM12 colon): 295 nM | TGI (KM12 colon): 906 nM | GI50 (M14 melanoma): 276 nM | TGI (M14 melanoma): 766 nM | GI50 (SN12C renal): 241 nM | TGI (SN12C renal): 598 nM | GI50 (SNB-19 CNS): 377 nM | TGI (SNB-19 CNS): > 100 µM | GI50 (NCI/ADR-RES ovarian): 2250 nM | TGI (NCI/ADR-RES ovarian): 9.28 µM | GI50 (OVCAR-5 ovarian): 392 nM | TGI (OVCAR-5 ovarian): > 100 µM | GI50 (RXF 393 renal): 191 nM | TGI (RXF 393 renal): 366 nM | GI50 (OVCAR-4 ovarian): 192 nM | TGI (OVCAR-4 ovarian): 414 nM | GI50 (MDA-MB-468 breast): 254 nM | TGI (MDA-MB-468 breast): 612 nM | GI50 (HCT-15 colon): 348 nM | TGI (HCT-15 colon): 1390 nM | GI50 (SR leukemia): 125 nM | TGI (SR leukemia): 253 nM | GI50 (BT-549 breast): 207 nM | TGI (BT-549 breast): 459 nM | GI50 (SK-MEL-28 melanoma): 969 nM | TGI (SK-MEL-28 melanoma): 2220 nM | GI50 (UO-31 renal): 388 nM | TGI (UO-31 renal): 1970 nM | GI50 (HS 578T breast): 269 nM | TGI (HS 578T breast): 628 nM | GI50 (SK-MEL-5 melanoma): 182 nM | TGI (SK-MEL-5 melanoma): 331 nM | GI50 (NCI-H522 lung): 209 nM | TGI (NCI-H522 lung): 455 nM | GI50 (HOP-62 NSCLC): 234 nM | TGI (HOP-62 NSCLC): 532 nM | GI50 (UACC-257 melanoma): 553 nM | TGI (UACC-257 melanoma): 1770 nM | GI50 (NCI-H460 NSCLC): 195 nM | TGI (NCI-H460 NSCLC): 461 nM | GI50 (SF-295 CNS): 223 nM | TGI (SF-295 CNS): 499 nM | GI50 (LOX IMVI melanoma): 190 nM | TGI (LOX IMVI melanoma): 343 nM | GI50 (HT29 colon): 406 nM | TGI (HT29 colon): > 100 µM | GI50 (K-562 leukemia): 345 nM | TGI (K-562 leukemia): 1230 nM | GI50 (HL-60(TB) leukemia): 214 nM | TGI (HL-60(TB) leukemia): 378 nM | GI50 (NCI-H322M lung): 403 nM | TGI (NCI-H322M lung): 1510 nM | GI50 (U251 glioblastoma): 334 nM | TGI (U251 glioblastoma): 995 nM | GI50 (MDA-MB-435 melanoma): 320 nM | TGI (MDA-MB-435 melanoma): 903 nM
